# Results taken from patent US20040259948A1, “Reciprocal regulation of inflammation and lipid metabolism by liver X receptors” (priority 2003, published 2004).
# Test system: Thioglycolate-elicited murine peritoneal macrophages
# Assay: LPS-stimulated macrophages: NO production, iNOS and ABCA1 mRNA
# Format: cell-based
# Protocol: To investigate the role of LXRs in host defense, the influence of LXR agonists on macrophage responses to bacterial pathogens was tested. Thioglycolate-elicited peritoneal macrophages were infected in vitro with Escherichia coli. After 18 hours, expression of inducible nitric oxide synthase (iNOS) mRNA and nitric oxide (NO) production were assessed. […] This repression occurs over the same concentration range needed to induce the established LXR target gene ATP-binding cassette transporter A1 (ABCA1). A, LXR agonist inhibits nitrite production in response to bacterial infection. […] Cells were then infected with E. coli (A, B) or treated with 100 ng/ml LPS(C, D, E) as indicated. After 18 h, NO production was determined using a colorimetric assay (A, D), or mRNA levels were determined using real-time quantitative PCR assays (B, C, E). […] The inhibitory effect of LXR agonists on iNOS expression was dose-dependent and occurred over the same range of concentration as that required to induce ATP-binding cassette transporter A1 (ABCA1) (FIGS. 1D and E).
# The anti-inflammatory activity of LXR ligands can be separated from the induction of lipid metabolism genes such as ABCA1. Murine peritoneal macrophages were treated with LPS to induce iNOS gene expression (FIG. 8A) and were assayed for ABCA1 mRNA by real time qPCR (FIG. 8B). NOx production was measured by colorimetric assay. […] The identification of LXR agonists with only anti-inflammatory activity should greatly increase the usefulness of such compounds as therapeutic agents, because they lack the unwanted side effects on lipid metabolism such as elevation of triglyceride levels.
# Cell culture and transfections. Thioglycolate-elicited peritoneal macrophages were cultured in RPMI containing 10% fetal bovine serum (FBS). RAW 264.7 cells were cultured in DMEM containing 10% FBS. For ligand treatments, cells were in cultured medium supplemented with 5% lipoprotein-deficient serum (LPDS) and ligands for 18 h before stimulation. Bacterial infection in vitro was performed as described (Chen, L. M. et al. 1996 Mol Microbiol 21:1101-1115). Transient transfections of RAW 264.7 cells were performed in triplicate in 48-well plates using Superfect reagent (Life Technologies). After transfection, cells were incubated in medium containing 10% LPDS and the indicated ligands for 18 h before stimulation with LPS for an additional 18 h. Luciferase activity was normalized to β-galactosidase activity. NO production was determined spectrophotometrically (Castrillo, A. et al. 2000 Mol Cell Biol 20:1692-1698).
# RNA and protein analysis. Total RNA was extracted using Trizol reagent (Life Technologies, Inc.). Northern blot analysis was carried out as described using radiolabeled cDNA probes (Tontonoz, P. et al. 1998 Cell 93:241-252). Real-time quantitative PCR (TaqMan) analysis was performed using an Applied Biosystems 7700 sequence detector. Two-step real-time PCR was performed as described (Joseph, S. B. et al. 2002 J Biol Chem 277:11019-11025). The primers and probes used are as follows: […]
# [1] = 100 ng/ml LPS, 18 h, real-time quantitative PCR, FIG. 1E
smiles,measurement,setting,value
O=C(O)Cc1cccc(OCCCN(Cc2cccc(C(F)(F)F)c2Cl)CC(c2ccccc2)c2ccccc2)c1 [GW3965],"nitrite production, dose response","100 ng/ml LPS, 18 h, colorimetric assay, FIG. 1D",Dose-dependent inhibition
same,"ABCA1 mRNA expression, dose response",[1],Reciprocal dose-dependent regulation
same,"iNOS mRNA expression, dose response",[1],Reciprocal dose-dependent regulation
same,"inhibition of inflammatory genes (NOx production), T1317 compared with GW3965","LPS, increasing doses, colorimetric assay, FIG. 8A",more effective inhibitor
